Test results: patent US20260327264A1, “PEPTIDE INHIBITORS OF INTERLEUKIN-23 RECEPTOR” (Zealand Pharma A/S, priority 2023, published 2026)
Entries after “also recorded” stand apart in the source; their conditions may differ. Where two headings read alike, the source gives them in different places. *1 amine or outer side, *2 acyl side, *3 side chain or, on linkers, in order; H or OH if unused. Where a SMILES comes first, the peptide text is derived from it. Bridges are numbered along the chain shown (N, C = ends). [ ]: non-standard residue; d: D form. 2Nal = N[C@@H](Cc1ccc2ccccc2c1)C(=O)O; AEF = NCCOc1ccc(C[C@H](N)C(=O)O)cc1; X1 = O=C(Cc1ccc(CN[*:1])cc1)[*:2]; 3Pal = N[C@@H](Cc1cccnc1)C(=O)O; Cit = NC(=O)NCCC[C@H](N)C(=O)O; αMeL = CC(C)C[C@](C)(N)C(=O)O; Dab = NCC[C@H](N)C(=O)O

Columns and labels:
[1] = Peptide stability in simulated gastric fluid (SGF); type: in vitro ADME; conditions: pig, pH 1.2, pepsin, 37° C.
Experimental: (§1) SGF and SIF were prepared based on the United States Pharmacopeia specifications (Test Solutions, United States Pharmacopeia 35, NF 30, 2012). SGF was prepared by dissolving sodium chloride (0.2 g) in 50 mL of water. A volume of 0.7 mL of 10 M HCl was added to adjust the pH of the solution to 1.2 and the volume made up to 100 mL with water. 64 mg porcine pepsin (P7125, Sigma Aldrich) was gently dissolved into 20 mL preheated (37° C.) solution (3.2 g/L) immediately prior to the incubation. SIF was prepared by dissolving monobasic potassium phosphate (0.68 g) in 50 mL of water and adjusting the pH to 6.8 with 1 M NaOH. The volume was subsequently made up to 100 mL with water. 200 mg porcine pancreatin (P1625, Sigma Aldrich) was gently dissolved into 20 mL preheated (37° C.) solution (10 g/L) immediately prior to the incubation.
(§2) To initiate the incubations, 20 μL of peptide stock solution in 50% v/v isopropanol was deposited at the bottom of a well plate and 580 μL matrix solution was added to give a final substrate concentration of 10 μM. The incubation was performed at 37° C. with gentle shaking. 70 μL aliquots were removed at 0, 1 and 4 hours and quenched into 210 μL ice-cold precipitant solution (95% v/v acetonitrile with 0.1% v/v formic acid). After the last timepoint, the sampling plate was mixed for 10 min on a shaking table and centrifuged 10 min at 2200 g. 70 μL resulting supernatant was diluted with 150 μL water, mixed and centrifugated before analysis by liquid chromatography high resolution mass spectrometry. The zero sample was reinjected after the 4-hour sample to confirm that no drift in instrument sensitivity had occurred during the run. Percent remaining at each timepoint was calculated relative to timepoint zero based on absolute peak areas.
(§3) Compounds with a SGF stability (after 4 h) above 70% are considered highly SGF stable. Compounds with a SGF stability (after 4 h) between 30-70% (including 30% and 70%) are considered moderately SGF stable. Compounds with a SGF stability (after 4 h) below 30% are considered SGF unstable. SGF stability values above 100% are due to assay uncertainty and indicate the compound has not degraded.

[2] = Peptide stability in simulated intestinal fluid (SIF); type: in vitro ADME; conditions: for remaining at 1 h, 10 µM / remaining at 4 h, 10 µM: pig
Experimental: as §1, §2
as §3, with “SIF” for “SGF”

[3] = system: IL-23 mediated STAT3 signalling (DB cells); assay: Functional inhibition of IL-23 mediated STAT3 signalling (phospho-STAT3 Tyr705) in DB cells; type: cell-based, human; conditions: for hIL-23 (pSTAT3) antagonist % inhibition: Table 3-2, maximal inhibitory response, EC80 of hIL-23
Outline: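 Phospho-STAT3 in lysed DB cells quantified by MSD kit after 90 min exposure to EC80 human IL-23, following 15 min compound pretreatment (37° C, 5% CO2). IC50 and maximal inhibition derived from curves normalized between IL-23-only and buffer-only controls.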

human IL-23R = target: T1, human IL-23R (Homo sapiens, UniProt Q5VWK5); assay: Binding assay: displacement of fluorophore (TAMRA)-labelled reference compound from human IL-23R (BRET, Nluc-IL23R fusion protein membranes); conditions: for Emax: read-out: % displacement (hIL-23R binding)
T1 construct: Nanoluc luciferase (Nluc); secretion signal encoded by the plasmid (not specified); expressed in transfected cells; crude membranes used in the assay
T1 sequence (Q5VWK5 22-629): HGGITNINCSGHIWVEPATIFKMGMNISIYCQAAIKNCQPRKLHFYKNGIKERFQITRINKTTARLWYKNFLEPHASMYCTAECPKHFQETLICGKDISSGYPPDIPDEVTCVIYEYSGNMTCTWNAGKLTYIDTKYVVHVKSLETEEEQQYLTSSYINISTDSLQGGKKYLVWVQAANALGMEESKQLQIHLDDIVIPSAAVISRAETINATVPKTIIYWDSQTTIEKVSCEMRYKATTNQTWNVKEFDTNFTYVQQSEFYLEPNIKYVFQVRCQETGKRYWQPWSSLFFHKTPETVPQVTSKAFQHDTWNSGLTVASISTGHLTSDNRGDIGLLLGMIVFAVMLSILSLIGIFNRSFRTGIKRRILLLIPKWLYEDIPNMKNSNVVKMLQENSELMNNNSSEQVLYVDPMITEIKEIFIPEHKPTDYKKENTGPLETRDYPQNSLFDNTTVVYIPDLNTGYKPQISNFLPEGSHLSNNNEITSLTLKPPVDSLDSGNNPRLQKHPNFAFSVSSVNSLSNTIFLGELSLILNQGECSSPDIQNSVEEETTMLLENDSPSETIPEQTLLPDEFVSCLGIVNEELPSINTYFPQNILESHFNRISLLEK

[4] = simulated intestinal fluid, SIF, pH 6.8, pancreatin, 37° C.
[5] = simulated intestinal fluid, SIF, pH 6.8, pancreatin, 37° C., read-out: SIF (% remaining 4 h)
[6] = Table 3-2, EC80 of hIL-23, read-out: hIL-23 (pSTAT3) antagonist IC50
[7] = EC80 of hIL-23, read-out: IC50 (pSTAT3)

Compound	remaining at 1 h, 10 µM [1] [%]	remaining at 4 h, 10 µM [1] [%]	remaining at 1 h, 10 µM [2, 4] [%]	remaining at 4 h, 10 µM [2, 5] [%]	IC50 [3, 6] [nM]	IC50 [3, 7] [nM]	remaining at 4 h, 10 µM ([2]; 37 °C, simulated intestinal fluid pH 6.8 with porcine pancreatin, read-out: SIF (% after 4 h), intact peptide remaining) [%]	SIF stability (in words) ([2]; simulated intestinal fluid)	IC50 (human IL-23R) [nM]	Emax (human IL-23R) [%]	hIL-23 (pSTAT3) antagonist % inhibition [3] [%]	potency of the compound (in words) (human IL-23R; potency against IL-23R)
CC(C)C[C@@H]1NC(=O)[C@H](Cc2c[nH]c3ccccc23)NC(=O)[C@H](Cc2c[nH]c3ccccc23)NC(=O)[C@@H]2CSCC(=O)CSC[C@H](NC(=O)[C@H](CO)NC(=O)[C@@H](NC(=O)[C@@H](N)CC(=O)O)CSCC(=O)CSC[C@@H](C(=O)N[C@@H](CCCNC(=N)N)C(N)=O)NC1=O)C(=O)N[C@@H](Cc1c[nH]c3ccccc13)C(=O)N[C@@H](CCC(N)=O)C(=O)N2 (single isomer, unassigned) [I3 (isomer 3), H-DC(1a)SC(2a)WQC(2a)WWLC(1a)R-[NH2], reference compound]	5	0	0	0	–	–	–	–	–	–	–	–
CNC(=O)[C@H](Cc1cccnc1)NC(=O)[C@H](CCC(N)=O)NC(=O)[C@@H]1CCC(=O)NCc2ccc(cc2)CC(=O)N[C@@H](CO)C(=O)N[C@H]2CCC(=O)NCC[C@H](NC(=O)[C@H](CCC(N)=O)NC(=O)[C@H](Cc3c[nH]c4ccccc34)NC2=O)C(=O)N[C@@H](Cc2ccc(OCCN)cc2)C(=O)N[C@@H](Cc2ccc3ccccc3c2)C(=O)N[C@@](C)(CC(C)C)C(=O)N1 [Compound 33, [4-Aminomethyl-phenylacetyl](1c)*SE(2c)WQ[Dab](2c)[Y(2-aminoethoxy)][2-Nal][2-Me-Leu]E(1c)Q[3-(3-Pyridyl)-Ala]-[NHMe]] ([X1]SEWQ[Dab][AEF][2Nal][αMeL]EQ[3Pal]-NHMe; lactam 3-6, N-10)	98	–	92	–	–	–	–	–	–	–	–	–
CC(C)C[C@]1(C)NC(=O)[C@H](Cc2ccc3ccccc3c2)NC(=O)[C@H](Cc2ccc(OCCN)cc2)NC(=O)[C@@H]2CCNC(=O)CC[C@H](NC(=O)[C@H](CO)NC(=O)Cc3ccc(cc3)CNC(=O)CC[C@@H](C(=O)N[C@@H](CCN)C(=O)NCCc3cccnc3)NC1=O)C(=O)N[C@@H](Cc1c[nH]c3ccccc13)C(=O)N[C@@H](CCC(N)=O)C(=O)N2 [Compound 7, [4-Aminomethyl-phenylacetyl](1c)*SE(2c)WQ[Dab](2c)[Y(2-aminoethoxy)][2-Nal][2-Me-Leu]E(1c)[Dab]-[NH-(2-(pyridin-3-yl)ethyl)]]	–	–	103	–	0.13	0.13	130	SIF stable	–	–	98	more potent than Compound 6; also recorded: particularly potent
CC(C)C[C@]1(C)NC(=O)[C@H](Cc2ccc3ccccc3c2)NC(=O)[C@H](Cc2ccc(OCCN)cc2)NC(=O)[C@@H]2CCNC(=O)CC[C@H](NC(=O)[C@H](CO)NC(=O)Cc3ccc(cc3)CNC(=O)CC[C@@H](C(=O)N[C@@H](CCN)C(=O)N[C@H](Cc3cccnc3)C(N)=O)NC1=O)C(=O)N[C@@H](Cc1c[nH]c3ccccc13)C(=O)N[C@@H](CCC(N)=O)C(=O)N2 [Compound 5, [4-Aminomethyl-phenylacetyl](1c)*SE(2c)WQ[Dab](2c)[Y(2-aminoethoxy)][2-Nal][2-Me-Leu]E(1c)[Dab][{d}3-(3-Pyridyl)-Ala]-[NH2]]	–	105	91	–	2.1	2.1	–	–	–	–	95	–
CNC(=O)[C@H](Cc1cccnc1)NC(=O)[C@H](CCN)NC(=O)[C@@H]1CCC(=O)NCc2ccc(cc2)CC(=O)N[C@@H](C)C(=O)N[C@H]2CCC(=O)NCC[C@H](NC(=O)[C@H](CCC(N)=O)NC(=O)[C@H](Cc3c[nH]c4ccccc34)NC2=O)C(=O)N[C@@H](Cc2cnc3ccccc3c2)C(=O)N[C@@H](Cc2ccc3ccccc3c2)C(=O)NC(C)(C)C(=O)N1 [Compound 52, [4-aminomethyl-phenylacetyl](1c)*AE(2c)WQ[Dab](2c)[3-quinolinylalanine][2Nal][Aib]E(1c)[Dab][3-(3-Pyridyl)-alanyl]-[NHMe]]	–	–	92	95	0.6	–	–	–	0.081	102	99	–

The next lines start with results.

remaining at 1 h, 10 µM [1] [%]	remaining at 4 h, 10 µM [1] [%]	remaining at 1 h, 10 µM [2, 4] [%]	remaining at 4 h, 10 µM [2, 5] [%]	IC50 [3, 6] [nM]	IC50 [3, 7] [nM]	remaining at 4 h, 10 µM ([2]; 37 °C, simulated intestinal fluid pH 6.8 with porcine pancreatin, read-out: SIF (% after 4 h), intact peptide remaining) [%]	SIF stability (in words) ([2]; simulated intestinal fluid)	IC50 (human IL-23R) [nM]	Emax (human IL-23R) [%]	Compound	hIL-23 (pSTAT3) antagonist % inhibition [3] [%]	potency of the compound (in words) (human IL-23R; potency against IL-23R)
105	99	89	–	0.042	–	–	–	–	–	CNC(=O)[C@H](Cc1cccnc1)NC(=O)[C@H](CCN)NC(=O)[C@@H]1CCC(=O)NCc2ccc(cc2)CC(=O)N[C@@H](CO)C(=O)N[C@H]2CCC(=O)NCC[C@H](NC(=O)[C@H](CCCNC(N)=O)NC(=O)[C@H](Cc3c[nH]c4ccccc34)NC2=O)C(=O)N[C@@H](Cc2ccc(OCCN)cc2)C(=O)N[C@@H](Cc2ccc3ccccc3c2)C(=O)N[C@@](C)(CC(C)C)C(=O)N1 [Compound 26, [4-Aminomethyl-phenylacetyl](1c)*SE(2c)W[Cit][Dab](2c)[Y(2-aminoethoxy)][2-Nal][2-Me-Leu]E(1c)[Dab][3-(3-Pyridyl)-Ala]-[NHMe]] ([X1]SEW[Cit][Dab][AEF][2Nal][αMeL]E[Dab][3Pal]-NHMe; lactam 3-6, N-10)	100	–
101	101	–	57	0.063	–	–	–	–	–	CNC(=O)[C@H](Cc1cccnc1)NC(=O)[C@H](CCN)NC(=O)[C@@H]1CCC(=O)NCc2ccc(cc2)CC(=O)N[C@@H](Cc2ccccc2)C(=O)N[C@H]2CCC(=O)NCC[C@H](NC(=O)[C@H](CCC(N)=O)NC(=O)[C@H](Cc3c[nH]c4ccccc34)NC2=O)C(=O)N[C@@H](Cc2ccc(OCCN)cc2)C(=O)N[C@@H](Cc2ccc3ccccc3c2)C(=O)N[C@@](C)(CC(C)C)C(=O)N1 [Compound 21, [4-Aminomethyl-phenylacetyl](1c)*FE(2c)WQ[Dab](2c)[Y(2-aminoethoxy)][2-Nal][2-Me-Leu]E(1c)[Dab][3-(3-Pyridyl)-Ala]-[NHMe]] ([X1]FEWQ[Dab][AEF][2Nal][αMeL]E[Dab][3Pal]-NHMe; lactam 3-6, N-10)	102	–
–	–	93	89	0.093	–	–	–	0.023	89	CNC(=O)[C@H](Cc1cccnc1)NC(=O)[C@H](CCN)NC(=O)[C@@H]1CCC(=O)NCc2ccc(cc2)CC(=O)N[C@@H](C)C(=O)N[C@H]2CCC(=O)NCC[C@H](NC(=O)[C@H](CCC(N)=O)NC(=O)[C@H](Cc3c[nH]c4ccccc34)NC2=O)C(=O)N[C@@H](Cc2ccc(OCCN)cc2)C(=O)N[C@@H](Cc2cnc3ccccc3c2)C(=O)NC(C)(C)C(=O)N1 [Compound 49, 4-aminomethyl-phenylacetyl](1c)*AE(2c)WQ[Dab](2c)[Y(2-aminoethoxy)][3-quinolinylalanine][Aib]E(1c)[Dab][3-(3-Pyridyl)-alanyl]-[NHMe]]	100	–
